Data taken from ChEMBL document CHEMBL4483862, “Open-source discovery of chemical leads for next-generation chemoprotective antimalarials” (2018).

Tested on: Plasmodium berghei
Test: Luciferase/luciferin-expressing antifolate-resistant parasites were used to infect a culture of HepG2 cells that were pre-incubated with compounds. Infected hepatocytes emit light due to the luciferase reaction. Assay results are presented as the percent inhibition of light emission compared to control. […]
Type: functional
Conditions: sporozoite; for IC90: read-out: LUCIFERASE INFECTION ASSAY - IC90
[1] = PBLUC_HILL_SLOPE 3, PBLUC_R_SQUARED 0.854, read-out: LUCIFERASE INFECTION ASSAY - IC50
[2] = PBLUC_HILL_SLOPE 2.91, PBLUC_R_SQUARED 0.109, read-out: LUCIFERASE INFECTION ASSAY - IC50

Row | SMILES | IC90 | other results
1 | CCCCNC(=O)C1(C)CCCCN1C(=O)c1ccc2c(c1)C(C)(C)CCC2(C)C (configuration not stated) | > 8 µM | IC50 (PBLUC_HILL_SLOPE 3, PBLUC_R_SQUARED 0.424, read-out: LUCIFERASE INFECTION ASSAY - IC50): 7.41 µM
2 | NCCCNc1ccnc2cc(Cl)ccc12 | > 14 µM | IC50 (PBLUC_HILL_SLOPE 2.91, PBLUC_R_SQUARED 0.438, read-out: LUCIFERASE INFECTION ASSAY - IC50): 8.74 µM
3 | CC(=O)c1cccc(-c2cnc3cnc(-c4cccc(F)c4)cn23)c1 | > 9.96 µM | IC50 (PBLUC_HILL_SLOPE 3, PBLUC_R_SQUARED 0.624, read-out: LUCIFERASE INFECTION ASSAY - IC50): 7.54 µM
4 | Cc1cc(C(=O)NC2CC2)c(C)n1-c1ccc(C(C)C)cc1 | > 10 µM | IC50 (PBLUC_HILL_SLOPE 2.98, PBLUC_R_SQUARED 0.567, read-out: LUCIFERASE INFECTION ASSAY - IC50): 6.28 µM
5 | Cc1c(-c2ccccc2)sc2ncnc(NCC(=O)N3CCCC3)c12 | > 10 µM | IC50 (PBLUC_HILL_SLOPE 2.95, PBLUC_R_SQUARED 0.129, read-out: LUCIFERASE INFECTION ASSAY - IC50): 5.82 µM
6 | O=C(NCCc1ccccn1)c1ccc(Cl)c(S(=O)(=O)N(Cc2ccccc2)c2cccc(C(F)(F)F)c2)c1 | 3.59 µM | IC50 (PBLUC_HILL_SLOPE 3, PBLUC_R_SQUARED 0.619, read-out: LUCIFERASE INFECTION ASSAY - IC50): 1.73 µM
7 | O=C(N/N=C/c1ccc(O)cc1O)c1ccc[n+]([O-])c1 | 0.362 µM | IC50 [1]: 0.174 µM
8 | Cc1cc(=O)nc(N/N=C/c2cc(C)n(-c3ccccc3Cl)c2C)[nH]1 | > 10 µM | IC50 (PBLUC_HILL_SLOPE 2.91, PBLUC_R_SQUARED 0.512, read-out: LUCIFERASE INFECTION ASSAY - IC50): 9.21 µM
9 | O=C(NCc1ccccc1)C(=Cc1ccc(-c2ccccc2)cc1)C(=O)NCc1ccccc1 | 9.48 µM | IC50 (PBLUC_HILL_SLOPE 2.95, PBLUC_R_SQUARED 0.782, read-out: LUCIFERASE INFECTION ASSAY - IC50): 4.51 µM
10 | Cc1ccc(-c2nn(-c3ccccc3)cc2CN(C)C(=O)CCNC(=O)c2ccco2)cc1C | > 10 µM | IC50 (PBLUC_HILL_SLOPE 3, PBLUC_R_SQUARED 0.508, read-out: LUCIFERASE INFECTION ASSAY - IC50): 5.91 µM
11 | COc1ccccc1C(=O)Nc1c(C#N)cnn1-c1nc(C)cc(C)n1 | 7.94 µM | IC50 (PBLUC_HILL_SLOPE 2.98, PBLUC_R_SQUARED 0.592, read-out: LUCIFERASE INFECTION ASSAY - IC50): 3.8 µM
12 | CCOc1ccc(-n2c(C)cc(/C=C(\C#N)c3ccccn3)c2C)cc1 | > 10 µM | IC50 (PBLUC_HILL_SLOPE 2.96, PBLUC_R_SQUARED 0.363, read-out: LUCIFERASE INFECTION ASSAY - IC50): 8.53 µM
13 | Cc1nc2ccc(I)cn2c1/C=N/Nc1ccccn1 | > 10 µM | IC50 (PBLUC_HILL_SLOPE 2.99, PBLUC_R_SQUARED 0.247, read-out: LUCIFERASE INFECTION ASSAY - IC50): 6.77 µM
14 | CNc1nc2cnc(Nc3cccc(Cl)c3)cc2n1-c1cc(OC)c(OC)c(OC)c1 | 4.49 µM | IC50 (PBLUC_HILL_SLOPE 3.01, PBLUC_R_SQUARED 0.505, read-out: LUCIFERASE INFECTION ASSAY - IC50): 2.17 µM
15 | Cc1ccc(-n2ncc(C(=O)OCc3nc(N)nc(N(C)C)n3)c2C(C)C)cc1 | > 10 µM | IC50 (PBLUC_HILL_SLOPE 2.99, PBLUC_R_SQUARED 0.678, read-out: LUCIFERASE INFECTION ASSAY - IC50): 6.36 µM
16 | COc1cc2c(cc1OC)C(c1ccccc1Cl)N(C(=O)c1sc3ccccc3c1Cl)CC2 (configuration not stated) | > 6.62 µM | IC50 (PBLUC_HILL_SLOPE 2.93, PBLUC_R_SQUARED 0.186, read-out: LUCIFERASE INFECTION ASSAY - IC50): 4.9 µM
17 | CC(C)(C)c1ccc(/C=C2\CCc3c2nc2ccccc2c3C(=O)OCC(=O)NNC(=O)c2ccccc2F)cc1 | 5.46 µM | IC50 (PBLUC_HILL_SLOPE 2.93, PBLUC_R_SQUARED 0.289, read-out: LUCIFERASE INFECTION ASSAY - IC50): 2.58 µM
18 | CN(C(=O)CN1C(=O)NC(c2ccccc2)(c2ccccc2)C1=O)C1CCCc2ccccc21 (configuration not stated) | > 10 µM | IC50 (PBLUC_HILL_SLOPE 2.94, PBLUC_R_SQUARED 0.848, read-out: LUCIFERASE INFECTION ASSAY - IC50): 5.62 µM
19 | O=C(NC1CCCC1)c1ccc(-c2cn3c(-c4ccc(C(=O)NC5CC5)cc4)cnc3cn2)cc1 | > 7.09 µM | IC50 (PBLUC_HILL_SLOPE 2.95, PBLUC_R_SQUARED 0.52, read-out: LUCIFERASE INFECTION ASSAY - IC50): 4.87 µM
20 | N=C(Cc1cccs1)NOC(=O)Nc1cc(Cl)cc(Cl)c1 | > 9.59 µM | IC50 (PBLUC_HILL_SLOPE 2.97, PBLUC_R_SQUARED 0.445, read-out: LUCIFERASE INFECTION ASSAY - IC50): 6.76 µM
21 | COc1cc(OC)c(C(=O)NC(C)C23CC4CC(CC(C4)C2)C3)cc1OC (configuration not stated) | 9.64 µM | IC50 (PBLUC_HILL_SLOPE 2.98, PBLUC_R_SQUARED 0.335, read-out: LUCIFERASE INFECTION ASSAY - IC50): 4.61 µM

Row | SMILES | IC90 | other results
22 | COc1ccc(-c2nc3ccnc(NCc4ccc(Cl)cc4)c3[nH]2)cc1 | 4.74 µM | IC50 (PBLUC_HILL_SLOPE 2.99, PBLUC_R_SQUARED 0.272, read-out: LUCIFERASE INFECTION ASSAY - IC50): 2.27 µM
23 | Cc1cc(-c2csc(NC(=O)CCc3nc4ccccc4[nH]3)n2)c(C)s1 | > 10 µM | IC50 (PBLUC_HILL_SLOPE 3, PBLUC_R_SQUARED 0.654, read-out: LUCIFERASE INFECTION ASSAY - IC50): 6.46 µM
24 | Cc1cc(C)n(-c2nc(NCc3ccco3)cc(-c3ccccc3)n2)n1 | > 9.55 µM | IC50 (PBLUC_HILL_SLOPE 3.01, PBLUC_R_SQUARED 0.273, read-out: LUCIFERASE INFECTION ASSAY - IC50): 5.14 µM
25 | CCOC(=O)C1CCCN(Cn2nc(-c3ccc(Br)cc3)n(C3CCCCC3)c2=S)C1 (configuration not stated) | > 10 µM | IC50 [2]: 5.86 µM
26 | O=C(CN1C(=O)C(=O)N(CCc2cccs2)C1=O)NC(=O)Nc1ccccc1F | > 10 µM | IC50 (PBLUC_HILL_SLOPE 3, PBLUC_R_SQUARED 0.385, read-out: LUCIFERASE INFECTION ASSAY - IC50): > 10 µM
27 | S=c1n(CN2CCN(c3ccccc3Cl)CC2)nc(-c2cccs2)n1Cc1ccccc1 | 0.362 µM | IC50 [1]: 0.174 µM
28 | Cc1nc2ccccc2n1CCC(=O)Nc1ccc2ccccc2c1 | > 10 µM | IC50 (PBLUC_HILL_SLOPE 2.97, PBLUC_R_SQUARED 0.444, read-out: LUCIFERASE INFECTION ASSAY - IC50): 7.73 µM
29 | CCCc1cc(NCCN(C)C)n2ncc(-c3ccccc3)c2n1 | > 10.2 µM | IC50 (PBLUC_HILL_SLOPE 2.98, PBLUC_R_SQUARED 0.437, read-out: LUCIFERASE INFECTION ASSAY - IC50): 4.93 µM
30 | CN(C)c1ccc(S(N)(=O)=O)cc1NC(=O)Cc1ccc(-c2ccccc2)cc1 | > 10 µM | IC50 (PBLUC_HILL_SLOPE 2.92, PBLUC_R_SQUARED 0.577, read-out: LUCIFERASE INFECTION ASSAY - IC50): 5.33 µM
31 | COCCCn1c(-c2ccc(C(C)(C)C)cc2)n[nH]c1=S | > 10.8 µM | IC50 (PBLUC_HILL_SLOPE 2.97, PBLUC_R_SQUARED 0.207, read-out: LUCIFERASE INFECTION ASSAY - IC50): 6.76 µM
32 | c1ccn2c(Sc3ncnc4sc5c(c34)CCC5)nnc2c1 | > 10 µM | IC50 (PBLUC_HILL_SLOPE 2.99, PBLUC_R_SQUARED 0.206, read-out: LUCIFERASE INFECTION ASSAY - IC50): 4.93 µM
33 | CCCc1cc(C(=O)Nc2ccc(OC(F)F)cc2)sc1C | > 10 µM | IC50 (PBLUC_HILL_SLOPE 2.93, PBLUC_R_SQUARED 0.424, read-out: LUCIFERASE INFECTION ASSAY - IC50): 8.81 µM
34 | c1ccc(-c2nc3sccn3c2CSc2nnnn2C2CCCC2)cc1 | > 10 µM | IC50 (PBLUC_HILL_SLOPE 2.99, PBLUC_R_SQUARED 0.0258, read-out: LUCIFERASE INFECTION ASSAY - IC50): 8.01 µM
35 | Cn1c(Nc2ccccc2)nc2cnc(Nc3ccc(Oc4ccccc4)cc3)cc21 | > 10 µM | IC50 (PBLUC_HILL_SLOPE 3.01, PBLUC_R_SQUARED 0.581, read-out: LUCIFERASE INFECTION ASSAY - IC50): 5.93 µM
36 | O=C(Nc1cccc(CNc2ccnc3cc(Cl)ccc23)c1)C1CC1 | > 10 µM | IC50 (PBLUC_HILL_SLOPE 2.98, PBLUC_R_SQUARED 0.123, read-out: LUCIFERASE INFECTION ASSAY - IC50): 5.8 µM
37 | CN(C)c1cccc(-c2cnc3cnc(-c4ccc(C(=O)NC5CC5)cc4)cn23)c1 | > 8.3 µM | IC50 (PBLUC_HILL_SLOPE 2.95, PBLUC_R_SQUARED 0.0505, read-out: LUCIFERASE INFECTION ASSAY - IC50): 7.62 µM
38 | COc1ccc(CCN(C)c2ccc(S(=O)(=O)N(C(C)C)C(C)C)cn2)cc1OC | > 10 µM | IC50 [2]: 5.86 µM
39 | Cc1cccc(C)c1NC(=O)Nc1cccn(Cc2ccc(Cl)cc2)c1=O | > 8.64 µM | IC50 (PBLUC_HILL_SLOPE 2.91, PBLUC_R_SQUARED 0.157, read-out: LUCIFERASE INFECTION ASSAY - IC50): 7.92 µM
40 | N#Cc1cc(-c2nc(-c3ccccc3)cs2)c(N)[nH]c1=S | > 10 µM | IC50 (PBLUC_HILL_SLOPE 3, PBLUC_R_SQUARED 0.293, read-out: LUCIFERASE INFECTION ASSAY - IC50): 6.32 µM
41 | CN(Cc1c(F)cccc1Cl)C(=O)COc1ccc2[nH]c3ccccc3c(=O)c2c1 | 1.11 µM | IC50 (PBLUC_HILL_SLOPE 2.98, PBLUC_R_SQUARED 0.795, read-out: LUCIFERASE INFECTION ASSAY - IC50): 0.53 µM
